Reference: ChEMBL document CHEMBL1201862, “PubChem BioAssay data set” (2004)
Values joined by “and” are separate entries in the source; they are usually repeats but may differ in a detail not shown here. Identical values can stand only once.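 Growth conditions: 96-well plates. Treatment: test compound, 48 hours, 5 concentrations. Analysis: linear interpolation between bracketing concentrations; unreached endpoints set to highest concentration. GI50 = concentration required for 50% inhibition of growth.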 Active and inactive are the calls of the source. Rule as the data show it: active = GI50 up to about 1.1 µM and inactive = higher.

How the values were obtained:
Assay in all cases: NCI anticancer screen, dose series, 48 h
A549 = test system: A549
HCC 2998 = test system: HCC 2998
UACC-62 = test system: UACC-62
MDA-N = test system: MDA-N
UO-31 = test system: UO-31
Malme-3M = test system: Malme-3M
U-251 = test system: U-251
CAKI-1 = test system: CAKI-1
KM12 = test system: KM12
SK-MEL-5 = test system: SK-MEL-5
MCF7 = test system: MCF7
TK-10 = test system: TK-10
RPMI-8226 = test system: RPMI-8226
HCT-15 = test system: HCT-15
RXF 393 = test system: RXF 393
OVCAR-4 = test system: OVCAR-4
SF-268 = test system: SF-268
SK-OV-3 = test system: SK-OV-3
NCI-H23 = test system: NCI-H23
NCI-H522 = test system: NCI-H522

Row | SMILES | GI50 (A549) | GI50 (HCC 2998) | GI50 (UACC-62) | GI50 (MDA-N) | GI50 (UO-31) | GI50 (Malme-3M) | GI50 (U-251) | GI50 (CAKI-1) | GI50 (KM12) | GI50 (SK-MEL-5) | GI50 (MCF7) | GI50 (TK-10) | GI50 (RPMI-8226) | GI50 (HCT-15) | GI50 (RXF 393) | GI50 (OVCAR-4) | GI50 (SF-268) | GI50 (SK-OV-3) | GI50 (NCI-H23) | GI50 (NCI-H522)
1 | O=C(CSc1nc2ccccc2c(=O)n1-c1ccccc1)N/N=C1\C(=O)Nc2ccc(F)cc21 | 4 µM (inactive) | 2.21 µM (inactive) | 2.24 µM (inactive) | 3.47 µM (inactive) | 2 µM (inactive) | 2.01 µM (inactive) | 8.93 µM (inactive) | 1.73 µM (inactive) | 3.71 µM (inactive) | 3.3 µM (inactive) | 2.18 µM (inactive) | 1.9 µM (inactive) | 2.3 µM (inactive) | 2 µM | 1.95 µM (inactive) | 1.82 µM (inactive) | 2.25 µM (inactive) | 1.81 µM (inactive) | 3.01 µM (inactive) | –
2 | CN(CC(=O)O)c1ncc2c(n1)-c1ccccc1OC2 | > 100 µM (inactive) | – | > 100 µM (inactive) | > 100 µM (inactive) | > 100 µM (inactive) | > 100 µM (inactive) | > 100 µM (inactive) | > 100 µM (inactive) | > 100 µM (inactive) | > 100 µM (inactive) | > 100 µM (inactive) | > 100 µM (inactive) | > 100 µM (inactive) | > 100 µM | > 100 µM (inactive) | > 100 µM (inactive) | > 100 µM (inactive) | – | > 100 µM (inactive) | > 100 µM (inactive)
3 | C=CCC1(O)c2cccc(O)c2C(=O)c2cccc(O)c21 (stereo unspecified) | 15.8 µM (inactive) | 11 µM (inactive) | – | 8.22 µM (inactive) | 15.4 µM (inactive) | – | 11.9 µM (inactive) | 21.7 µM (inactive) | 17.3 µM (inactive) | 10.7 µM (inactive) | 19.6 µM (inactive) | 23.5 µM (inactive) | 11.5 µM (inactive) | 12.2 µM | 15.7 µM (inactive) | 29.2 µM (inactive) | 23.3 µM (inactive) | – | 8.09 µM (inactive) | 9.86 µM (inactive)
4 | [O-][N+]1=[N+]([O-])[C@@H](c2ccccc2)[C@H]1c1ccccc1 | 19.5 µM (inactive) | – | 17.5 µM (inactive) | 16.6 µM (inactive) | 14.8 µM (inactive) | 17.7 µM (inactive) | 18.6 µM (inactive) | 5.83 µM (inactive) | 22.4 µM (inactive) | 16.7 µM (inactive) | 15.7 µM (inactive) | 17 µM (inactive) | 4.48 µM (inactive) | 11.4 µM | 14.8 µM (inactive) | 25 µM (inactive) | 24.9 µM (inactive) | 32.3 µM (inactive) | 16.5 µM (inactive) | 11.5 µM (inactive)
5 | O=C(CCc1ccc(O)c(O)c1)NCCc1cc(OCc2ccccc2)cc(OCc2ccccc2)c1 | 16.7 µM (inactive) | 9.86 µM (inactive) | 14.9 µM (inactive) | 11 µM (inactive) | 2.13 µM (inactive) | – | 5.77 µM (inactive) | 4.45 µM (inactive) | 8.99 µM (inactive) | 12.2 µM (inactive) | 12 µM (inactive) | 16.3 µM (inactive) | 5.27 µM (inactive) | 3.03 µM | 10.1 µM (inactive) | – | 8.45 µM (inactive) | 14 µM (inactive) | 14.1 µM (inactive) | 1.79 µM (inactive)
6 | O=C(/C=C/c1ccccc1)c1ccccn1 | 19.4 µM (inactive) and 32.6 µM (inactive) | 13.8 µM (inactive) and 19.3 µM (inactive) | 16.6 µM (inactive) and 20.6 µM (inactive) | 16.9 µM (inactive) and 27.2 µM (inactive) | 17.3 µM (inactive) and 20.6 µM (inactive) | – | 14.3 µM (inactive) and 17.9 µM (inactive) | 26.2 µM (inactive) and 16.6 µM (inactive) | 19.1 µM (inactive) and 14.4 µM (inactive) | 14 µM (inactive) and 26.1 µM (inactive) | 16 µM (inactive) | 19 µM (inactive) and 15.2 µM (inactive) | – | 11.8 µM and 18.5 µM | 19.2 µM (inactive) and 18.6 µM (inactive) | 17.3 µM (inactive) and 20.6 µM (inactive) | – | 27.4 µM (inactive) and 38.5 µM (inactive) | 17.9 µM (inactive) and 17.5 µM (inactive) | 17.8 µM (inactive) and 15.1 µM (inactive)
7 | COc1ccc(-n2c(CCCC(=O)O)nc3c2C(=O)c2ccccc2C3=O)cc1 | > 100 µM (inactive) | 84.7 µM (inactive) | 23.4 µM (inactive) | 31.4 µM (inactive) | > 100 µM (inactive) | 15.2 µM (inactive) | > 100 µM (inactive) | > 100 µM (inactive) | 64.1 µM (inactive) | – | 32.6 µM (inactive) | > 100 µM (inactive) | 36.3 µM (inactive) | 44.5 µM | – | 53.3 µM (inactive) | 46.7 µM (inactive) | > 100 µM (inactive) | 44.1 µM (inactive) | 25.8 µM (inactive)
8 | COC1=CC(=O)C2=C(C[C@@]3(C)C(=C2)C(CO)=CC[C@H]3O)C1=O | 33.7 µM (inactive) | 36.5 µM (inactive) | 17.6 µM (inactive) | 19 µM (inactive) | 20 µM (inactive) | 34.2 µM (inactive) | 21 µM (inactive) | 73.3 µM (inactive) | 31.4 µM (inactive) | 17.4 µM (inactive) | 16 µM (inactive) | 98.2 µM (inactive) | 18.4 µM (inactive) | 27.5 µM | 16.4 µM (inactive) | 17.9 µM (inactive) | 18.7 µM (inactive) | 88.5 µM (inactive) | 20.4 µM (inactive) | –
9 | Oc1ccc(O)c(Cc2ccccc2)c1 | 37.2 µM (inactive) | 93.1 µM (inactive) | 20.2 µM (inactive) | 18 µM (inactive) | 15.1 µM (inactive) | 26.4 µM (inactive) | 20.1 µM (inactive) | – | 19.1 µM (inactive) | 17.3 µM (inactive) | 15 µM (inactive) | 21.7 µM (inactive) | 3.61 µM (inactive) | 13.6 µM | – | 14.2 µM (inactive) | 12.5 µM (inactive) | 32.8 µM (inactive) | 26.4 µM (inactive) | –
10 | COc1cc(C(O)c2ccc3c(c2)OCO3)cc(OC)c1OC (stereo unspecified) | > 100 µM (inactive) | > 100 µM (inactive) | > 100 µM (inactive) | > 100 µM (inactive) | 61.2 µM (inactive) | > 100 µM (inactive) | > 100 µM (inactive) | > 100 µM (inactive) | > 100 µM (inactive) | 80.2 µM (inactive) | > 100 µM (inactive) | > 100 µM (inactive) | > 100 µM (inactive) | > 100 µM | – | > 100 µM (inactive) | > 100 µM (inactive) | > 100 µM (inactive) | > 100 µM (inactive) | > 100 µM (inactive)
11 | O=C1Nc2ccccc2/C1=N/Nc1nc(-c2cccc([N+](=O)[O-])c2)cs1 | 20.1 µM (inactive) | 18.1 µM (inactive) | 26.7 µM (inactive) | 31.1 µM (inactive) | 55.3 µM (inactive) | – | 21.4 µM (inactive) | 19.2 µM (inactive) | 26.3 µM (inactive) | 20.2 µM (inactive) | 23.9 µM (inactive) | 19 µM (inactive) | – | 21.8 µM | 29.5 µM (inactive) | 21 µM (inactive) | 19.7 µM (inactive) | 29.9 µM (inactive) | 36.4 µM (inactive) | 20.1 µM (inactive)
12 | CCC(=O)N(c1ccccc1)C(C)CN1CCC(O)(c2ccccc2)CC1 (stereo unspecified) | > 100 µM (inactive) | – | > 100 µM (inactive) | > 100 µM (inactive) | > 100 µM (inactive) | > 100 µM (inactive) | > 100 µM (inactive) | > 100 µM (inactive) | – | > 100 µM (inactive) | > 100 µM (inactive) | > 100 µM (inactive) | > 100 µM (inactive) | > 100 µM | > 100 µM (inactive) | > 100 µM (inactive) | > 100 µM (inactive) | > 100 µM (inactive) | > 100 µM (inactive) | > 100 µM (inactive)
13 | Cc1ccc(NC(=O)/C(CC2Nc3c(ccc4c3C(=O)c3ccccc3C4=O)NC2O)=N/NC(C)(C)C)cc1 (stereo unspecified) | 16.1 µM (inactive) | 22.6 µM (inactive) | 11.9 µM (inactive) | 14.1 µM (inactive) | 3.7 µM (inactive) | – | 14.1 µM (inactive) | 8.3 µM (inactive) | 8.85 µM (inactive) | 5.6 µM (inactive) | 23.7 µM (inactive) | 7.66 µM (inactive) | – | 5.79 µM | 11.1 µM (inactive) | 17.7 µM (inactive) | 10.4 µM (inactive) | 12.8 µM (inactive) | 17.7 µM (inactive) | 15.9 µM (inactive)
14 | COC1CN(C)/C(=N\c2cccc3ccccc23)S1 (stereo unspecified) | > 10 µM (inactive) | > 10 µM (inactive) | > 10 µM (inactive) | > 10 µM (inactive) | – | > 10 µM (inactive) | > 10 µM (inactive) | > 10 µM (inactive) | > 10 µM (inactive) | > 10 µM (inactive) | > 10 µM (inactive) | > 10 µM (inactive) | > 10 µM (inactive) | > 10 µM | – | > 10 µM (inactive) | > 10 µM (inactive) | > 10 µM (inactive) | > 10 µM (inactive) | > 10 µM (inactive)
15 | Cc1ccc(C(=O)CCC2C(=O)CC(C)(C)CC2=O)cc1 | > 100 µM (inactive) | > 100 µM (inactive) | > 100 µM (inactive) | > 100 µM (inactive) | > 100 µM (inactive) | – | > 100 µM (inactive) | 17.5 µM (inactive) | > 100 µM (inactive) | > 100 µM (inactive) | 53 µM (inactive) | > 100 µM (inactive) | – | > 100 µM | > 100 µM (inactive) | > 100 µM (inactive) | > 100 µM (inactive) | > 100 µM (inactive) | > 100 µM (inactive) | 16.6 µM (inactive)
